# Assay results from patent publication US12173007B2, “Imidazopyridazine IL-17 inhibitor compounds” (Janssen Pharmaceutica NV, priority 2021, dated 2024).
# Tests used:
# [1] = molecular target: IL-17A(FLAG-Tagged): IL-17RA(His-Tagged) binding (Homo sapiens, UniProt Q16552, K93Q); assay: IL-17A(FLAG-tagged):IL-17RA(His-tagged) binding disruption Eu-HTRF assay, Protocol 2; details: FLAG-IL-17A 1 nM; average if tested more than once
# From the text: IL-17A(FLAG-Tagged): IL-17RA(His-Tagged) Binding Disruption Eu-HTRF Assay
# An antibody directed against the FLAG tag of IL-17A (SEQ ID NO: 1) is labeled with the HTRF donor chromophore (Europium-cryptate). IL-17A is present as a dimer that is “locked into” this quaternary structure due to the formation of loop-spanning […] disulfide bridges. The construct of IL-17RA used in the assay excludes the […] portion of the receptor and is fused to a C-terminal 10×His tag (SEQ ID NO:2). An antibody directed against the His tag of the IL-17RA chimera is labeled with the HTRF acceptor chromophore (“D2”). The fluorescence-resonance energy transfer (FRET) depends on the vicinity of the donor chromophore to the acceptor, and interruption of the binding between the IL-17A and IL-17RA causes the reduction/loss of FRET. Therefore, this assay allows to evaluate the compound effect on the binding IL-17A and IL-17RA by monitoring the fluorescence intensity of donor vs acceptor. The assay was run using either Protocol 1 or Protocol 2 as described below.
# Protocol 2. 40 nl of 2-fold serial diluted compound solution for total 22 dilution points is added into each well of a 1536-well, white, low-volume, non-binding plate (Greiner #782904), then 2 μl of FLAG tagged IL-17A at 2×final concentration (1 nM) in solution of PBS+0.01% Triton-X100 is added to each well. The assay plate is briefly centrifuged then incubated for 1 h at rt. A mixed solution is prepared containing 2×5 nM 10HIS×IL-17RA, 2×2.5 nM Eu-anti-FLAG (CISBIO), 2×5 nM D2-anti-HIS (CISBIO) in PBS+0.01% Triton-X100+200 mM Potassium Fluoride (Sigma 60238) and 2 μl of mix is added to each well of the assay plate. The plate is briefly centrifuged then incubated for 2 h at rt. The HTRF intensities at the wavelength of donor (615 nm) and acceptor (665 nm) are measured using BMG Pherastar. The ratio between intensities at two wavelengths is calculated and plotted against the compound concentration and the data is fitted to a one-site competition model to yield IC50 of the compound.
# [2] = test system: IL-17A-induced G-CSF production in human normal keratinocyte (NHK); assay: NHK assay: IL-17A-induced G-CSF production in normal human keratinocytes; type: cell-based; details: 24 h, IL-17A 5 ng/mL, G-CSF by HTRF, average if tested more than once
# Description: IL-17A acts directly on keratinocytes through binding to dimeric receptor IL-17RA/RC and drives the production of a number of inflammatory mediators known to be elevated in psoriasis lesional tissue. IL-17A small molecule inhibitors that block the IL-17A to interact with IL-17R would inhibit the IL-17A signaling in its targeted cells such as keratinocytes. The compound functional activity is evaluated for its impact on IL-17A-induced G-CSF production in human normal keratinocyte (NHK).
# Adult normal human keratinocytes are cultured in keratinocyte growth medium (Lonza) in a flask till reaching ˜90% confluence, then cells are transferred to a 384-well plate at density of 3000-4000 cell/well. Recombinant human IL-17A (Gibco PHC9174) is pre-incubated with titrated compound or DMSO for 1 h at rt then added to the cell culture plate. The final concentration of IL-17A is 5 ng/mL and DMSO is 0.2%, in the culture containing 5% FBS. Cells are cultured/treated for 24 h at 37° C. Supernatants are collected and G-CSF production is measured through HTRF technology using Human G-CSF Kit (CisBio). G-CSF concentration was extrapolated from the standard curve and IC50 is determined using GraphPad Prism. Cell viability is also evaluated using CellTiter-Glo kit (Promega) and effect of compound on cell viability is compared to DMSO control.
# UniProt Q16552, sequence (Q16552 with tags, fused parts or gaps K93Q): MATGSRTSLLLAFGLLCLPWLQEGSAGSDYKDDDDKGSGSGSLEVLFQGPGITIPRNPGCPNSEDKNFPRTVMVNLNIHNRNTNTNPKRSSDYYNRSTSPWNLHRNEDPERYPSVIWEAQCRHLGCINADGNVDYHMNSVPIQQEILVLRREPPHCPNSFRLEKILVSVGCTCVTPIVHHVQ
IC50 [1] [nM],SMILES,"IC50 ([2]; Homo sapiens, Keratinocyte) [nM]",IC50 [2] [nM]
< 50,"COC[C@H](c1cnn2cc([C@H](CCC(C)(C)C(F)(F)F)NC(=O)c3nonc3C(F)F)nc2c1)N1CC(F)(F)CNC1=O [Example 110, N—((S)-1-(7-((S)-1-(5,5-Difluoro-2-oxotetrahydropyrimidin-1(2H)-yl)-2-methoxyethyl)imidazo[1,2-b]pyridazin-2-yl)-5,5,5-trifluoro-4,4-dimethylpentyl)-4-(difluoromethyl)-1,2,5-oxadiazole-3-carboxamide]",< 50,
< 50,"COC[C@H](c1cnn2cc([C@@H](NC(=O)c3nonc3C3CC3(F)F)C3CCC(F)(F)CC3)nc2c1)N1CC(F)(F)CNC1=O (single isomer, unassigned) [Example 129, N—((S)-(7-((S)-1-(5,5-Difluoro-2-oxotetrahydropyrimidin-1(2H)-yl)-2-methoxyethyl)imidazo[1,2-b]pyridazin-2-yl)(4,4-difluorocyclohexyl)methyl)-4-((S*)-2,2-difluorocyclopropyl)-1,2,5-oxadiazole-3-carboxamide]",,< 50
> 100,"Cc1nonc1C(=O)N[C@@H](CCC(C)(C)C(F)(F)F)c1cn2ncc(CN3C[C@@H]4[C@H](CNC3=O)C4(F)F)cc2n1 (relative stereo) [Example 120, N—((S)-1-(7-(((1S*,7R*)-8,8-Difluoro-4-oxo-3,5-diazabicyclo[5.1.0]octan-3-yl)methyl)imidazo[1,2-b]pyridazin-2-yl)-5,5,5-trifluoro-4,4-dimethylpentyl)-4-methyl-1,2,5-oxadiazole-3-carboxamide]",> 100,
< 50,"COC[C@H](c1cnn2cc([C@@H](NC(=O)c3nonc3C3CC3(F)F)C3CCC(F)(F)CC3)nc2c1)N1CC(F)(F)CNC1=O (single isomer, unassigned) [Example 128, N—((S)-(7-((S)-1-(5,5-Difluoro-2-oxotetrahydropyrimidin-1(2H)-yl)-2-methoxyethyl)imidazo[1,2-b]pyridazin-2-yl)(4,4-difluorocyclohexyl)methyl)-4-((R*)-2,2-difluorocyclopropyl)-1,2,5-oxadiazole-3-carboxamide]",< 50,
> 100,"COC[C@H](c1cnn2cc([C@@H](NC(=O)c3nonc3C)[C@H](C)OC(C)(C)C(F)(F)F)nc2c1)N1CC(F)(F)CNC1=O (relative stereo) [Example 61, N-((1R*,2S*)-1-(7-((S)-1-(5,5-Difluoro-2-oxotetrahydropyrimidin-1(2H)-yl)-2-methoxyethyl)imidazo[1,2-b]pyridazin-2-yl)-2-((1,1,1-trifluoro-2-methylpropan-2-yl)oxy)propyl)-4-methyl-1,2,5-oxadiazole-3-carboxamide]",> 100,
< 50,"Cc1nonc1C(=O)N[C@@H](CCC(C)(C)C(F)(F)F)c1cn2ncc(CN3C[C@H]4[C@@H](CNC3=O)C4(F)F)cc2n1 (relative stereo) [Example 121, N—((S)-1-(7-(((1R*,7S*)-8,8-Difluoro-4-oxo-3,5-diazabicyclo[5.1.0]octan-3-yl)methyl)imidazo[1,2-b]pyridazin-2-yl)-5,5,5-trifluoro-4,4-dimethylpentyl)-4-methyl-1,2,5-oxadiazole-3-carboxamide]",< 50,
,"COC[C@H](c1cnn2cc([C@H](CC(C)(C)C(F)(F)F)NC(=O)c3nonc3C3CC3)nc2c1)N1CC(F)(F)CNC1=O [Example 41, 4-Cyclopropyl-N—((S)-1-(7-((S)-1-(5,5-difluoro-2-oxotetrahydropyrimidin-1(2H)-yl)-2-methoxyethyl)imidazo[1,2-b]pyridazin-2-yl)-4,4,4-trifluoro-3,3-dimethylbutyl)-1,2,5-oxadiazole-3-carboxamide]",< 50,
,"Cc1nonc1C(=O)N[C@H](c1cn2ncc([C@@H](C3CC3)N3CCC(C(F)(F)F)NC3=O)cc2n1)C1CCC(F)(F)CC1 (single isomer, unassigned) [Example 48, N—((S)-(7-((R)-Cyclopropyl((S*)-2-oxo-4-(trifluoromethyl)tetrahydropyrimidin-1(2H)-yl)methyl)imidazo[1,2-b]pyridazin-2-yl)(4,4-difluorocyclohexyl)methyl)-4-methyl-1,2,5-oxadiazole-3-carboxamide]",> 100,
,"Cc1nocc1C(=O)N[C@H](c1cn2ncc([C@@H](COC3CC3)N3CC(F)(F)CNC3=O)cc2n1)C1CCC(F)(F)CC1 [Example 38, N—((S)-(7-((S)-2-Cyclopropoxy-1-(5,5-difluoro-2-oxotetrahydropyrimidin-1(2H)-yl)ethyl)imidazo[1,2-b]pyridazin-2-yl)(4,4-difluorocyclohexyl)methyl)-3-methylisoxazole-4-carboxamide]",< 50,
,"COC[C@H](c1cnn2cc([C@@H](NC(=O)c3nonc3C3CC3)[C@H]3[C@@H]4CC(F)(F)C[C@@H]43)nc2c1)N1CC(F)(F)CNC1=O (relative stereo) [Example 51, 4-Cyclopropyl-N—((S*)-(7-((S)-1-(5,5-difluoro-2-oxotetrahydropyrimidin-1(2H)-yl)-2-methoxyethyl)imidazo[1,2-b]pyridazin-2-yl)((1R,5S,6r)-3,3-difluorobicyclo[3.1.0]hexan-6-yl)methyl)-1,2,5-oxadiazole-3-carboxamide]",< 50,
,"COC[C@H](c1cnn2cc([C@H](COC(C)(C)C(F)(F)F)NC(=O)c3nonc3C3CC3)nc2c1)N1CC(F)(F)CNC1=O [Example 64, 4-Cyclopropyl-N—((R)-1-(7-((S)-1-(5,5-difluoro-2-oxotetrahydropyrimidin-1(2H)-yl)-2-methoxyethyl)imidazo[1,2-b]pyridazin-2-yl)-2-((1,1,1-trifluoro-2-methylpropan-2-yl)oxy)ethyl)-1,2,5-oxadiazole-3-carboxamide]",< 50,
,"C[C@H](c1cnn2cc([C@H](COC(C)(C)C(F)(F)F)NC(=O)c3nonc3C3CC3)nc2c1)N1CC(F)(F)CNC1=O [Example 87, 4-Cyclopropyl-N—((R)-1-(7-((R)-1-(5,5-difluoro-2-oxotetrahydropyrimidin-1(2H)-yl)ethyl)imidazo[1,2-b]pyridazin-2-yl)-2-((1,1,1-trifluoro-2-methylpropan-2-yl)oxy)ethyl)-1,2,5-oxadiazole-3-carboxamide]",< 50,
,"Cc1nonc1C(=O)N[C@H](c1cn2ncc([C@@H](C3CC3)N3CCC(C(F)(F)F)NC3=O)cc2n1)C1CCC(F)(F)CC1 (single isomer, unassigned) [Example 49, N—((S)-(7-((R)-Cyclopropyl((R*)-2-oxo-4-(trifluoromethyl)tetrahydropyrimidin-1(2H)-yl)methyl)imidazo[1,2-b]pyridazin-2-yl)(4,4-difluorocyclohexyl)methyl)-4-methyl-1,2,5-oxadiazole-3-carboxamide]",,> 100
,"CCOCC(c1cnn2cc([C@@H](NC(=O)c3nonc3C)C3CCC(F)(F)CC3)nc2c1)N1CC(F)(F)CNC1=O (single isomer, unassigned) [Example 35, N—((S)-(7-((S*)-1-(5,5-Difluoro-2-oxotetrahydropyrimidin-1(2H)-yl)-2-ethoxyethyl)imidazo[1,2-b]pyridazin-2-yl)(4,4-difluorocyclohexyl)methyl)-4-methyl-1,2,5-oxadiazole-3-carboxamide]",< 50,
,"Cc1nonc1C(=O)N[C@H](c1cn2ncc(C(COC3CCC3)N3CC(F)(F)CNC3=O)cc2n1)C1CCC(F)(F)CC1 (single isomer, unassigned) [Example 57, N—((S)-(7-((S*)-2-Cyclobutoxy-1-(5,5-difluoro-2-oxotetrahydropyrimidin-1(2H)-yl)ethyl)imidazo[1,2-b]pyridazin-2-yl)(4,4-difluorocyclohexyl)methyl)-4-methyl-1,2,5-oxadiazole-3-carboxamide]",< 50,
